This note sets out measurements from ChEMBL document CHEMBL1201862, “PubChem BioAssay data set” (2004).

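Test compounds were applied to cells in 96-well plates for 48 hours at 5 doses. Here, GI50 denotes the concentration required for 50% inhibition of growth.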 The source made the active and inactive calls. Rule as the data show it: active = GI50 up to about 1.1 µM and inactive = higher. Some results are limits rather than exact numbers.

Some test systems named below: HOP-62; CAKI-1; T47D; MOLT-4; MCF7; LOX IMVI; KM12; SK-MEL-28; 786-0; TK-10; NCI-H23; Malme-3M; NCI-H460; MDA-MB-435; EKVX; SK-MEL-2; OVCAR-5; U-251; OVCAR-4; A549.
Common to all, as to test: NCI anticancer screen, dose series, 48 h

On to `O=C(O)/C=C/c1c2ccc(=O)c(O)c-2oc2c(O)c(O)ccc12`, for which the GI50 was 23.4 µM (inactive) in the test on HOP-62; > 100 µM (inactive) in the test with CAKI-1; > 100 µM (inactive) in the test on T47D; 18.9 µM (inactive) in the test with MOLT-4; 17.2 µM (inactive) in the test with MCF7; 23 µM (inactive) in the test on LOX IMVI. Also, the GI50 in the test with KM12 is 25.3 µM (inactive); in the test with SK-MEL-28 it was > 100 µM (inactive); with 786-0, 18.9 µM (inactive); in the test on TK-10, > 100 µM (inactive); with NCI-H23, > 100 µM (inactive); in the test on Malme-3M, > 100 µM (inactive). Moreover, the GI50 was > 100 µM (inactive) in the test on NCI-H460; 17.4 µM (inactive) in the test on MDA-MB-435; 24.9 µM (inactive) with EKVX; 55.1 µM (inactive) in the test on SK-MEL-2; 78.2 µM (inactive) in the test with OVCAR-5; 16.1 µM (inactive) in the test on U-251. Moreover, the values for the GI50 with OVCAR-4 and in the test on A549 were 30.3 µM (inactive) and 32.3 µM (inactive), respectively.
For `Cc1ccc(N2C(=O)C3c4[nH]c5ccccc5c4C4CCC(C(C)(C)C)CC4C3C2=O)cc1` (stereo not given), the GI50 with HOP-62 is 5.38 µM (inactive); in the test on CAKI-1 it was 10.2 µM (inactive); in the test on T47D, 15.6 µM (inactive); with MOLT-4, 3.17 µM (inactive); in the test with MCF7, 12.6 µM (inactive); with LOX IMVI, 11.6 µM (inactive). Besides, the GI50 with KM12 was 17.5 µM (inactive); in the test on SK-MEL-28, 18.3 µM (inactive); with 786-0, 5.06 µM (inactive); with TK-10, 6 µM (inactive); in the test on NCI-H23, 15.1 µM (inactive); in the test on Malme-3M it was 6.9 µM (inactive). In addition, the GI50 was 6.46 µM (inactive) in the test on NCI-H460; 16.8 µM (inactive) in the test on MDA-MB-435; 13.6 µM (inactive) in the test with EKVX; 21.3 µM (inactive) in the test on SK-MEL-2; 14.1 µM (inactive) with OVCAR-5; 4.49 µM (inactive) with U-251. In addition, the GI50 was 7.21 µM (inactive) in the test on OVCAR-4 and 10.1 µM (inactive) with A549.
For `C=CC1CN(C(=O)OCC)N(C(=O)OCC)C1CCc1ccccc1` (stereo not given), the GI50 was > 100 µM (inactive) with HOP-62; > 100 µM (inactive) with CAKI-1; 33.3 µM (inactive) in the test with T47D; 31.2 µM (inactive) in the test on MOLT-4; 42.2 µM (inactive) in the test with MCF7; > 100 µM (inactive) in the test on LOX IMVI. The GI50 in the test on KM12 is 71.6 µM (inactive); with SK-MEL-28, > 100 µM (inactive); in the test with 786-0, > 100 µM (inactive); in the test on TK-10, > 100 µM (inactive); in the test with NCI-H23, 61.9 µM (inactive); in the test with Malme-3M, > 100 µM (inactive). The GI50 with NCI-H460 is 74.1 µM (inactive); with MDA-MB-435, > 100 µM (inactive); in the test on EKVX, 72.4 µM (inactive); with SK-MEL-2, > 100 µM (inactive); in the test on OVCAR-5, > 100 µM (inactive); in the test on U-251, > 100 µM (inactive). The figures for the GI50 with OVCAR-4 and in the test on A549 were 57.4 µM (inactive) and 57.8 µM (inactive), respectively.
Take `C=CCCC1(CC(Sc2ccccc2)P(=O)(c2ccccc2)c2ccccc2)OCCO1` (stereo not given): the GI50 in the test on HOP-62, in the test with CAKI-1, in the test with T47D, with MOLT-4, in the test on MCF7 and with LOX IMVI was > 10 µM (inactive) each time. Moreover, the GI50 in the test with KM12, with SK-MEL-28, with 786-0, with TK-10, in the test on NCI-H23 and in the test with Malme-3M was > 10 µM (inactive) throughout. For the same compound, the GI50 with NCI-H460, with MDA-MB-435, in the test on EKVX, in the test on SK-MEL-2, in the test with OVCAR-5 and with U-251 was > 10 µM (inactive) throughout. Also, the GI50 with OVCAR-4 and with A549 was > 10 µM (inactive) in each case.
In the case of `COC(=O)C1=C(C(=O)Nc2cccnc2Cl)N(c2ccc(OC)cc2[N+](=O)[O-])C(c2ccc(C)cc2)=CC1c1ccc(OC)cc1OC` (stereo not given), the GI50 in the test on HOP-62 is 23.3 µM (inactive); in the test on CAKI-1, 36.9 µM (inactive); with T47D it was 10 µM (inactive); with MOLT-4 it was 7.94 µM (inactive); in the test with MCF7, 2.15 µM (inactive); in the test on LOX IMVI, 2.82 µM (inactive). Also, the GI50 in the test on KM12 was 2.92 µM (inactive); in the test on SK-MEL-28 it was 59.6 µM (inactive); in the test on 786-0, 12 µM (inactive); in the test on TK-10, 20.7 µM (inactive); in the test on NCI-H23, 22.1 µM (inactive); in the test on Malme-3M, 12.6 µM (inactive). In addition, the GI50 in the test on NCI-H460 was 23.9 µM (inactive); with MDA-MB-435 it was 5.64 µM (inactive); with EKVX, 21.9 µM (inactive); in the test on SK-MEL-2 it was 17.9 µM (inactive); with OVCAR-5, 29 µM (inactive); with U-251, 6.41 µM (inactive). Moreover, the GI50 was 33.6 µM (inactive) in the test on OVCAR-4 and 6.3 µM (inactive) in the test on A549.
Take `CN(C)/C=N/S(=O)(=O)c1nn2c(C=O)c(-c3ccc(-c4ccccc4)cc3)nc2s1`: the GI50 in the test with HOP-62 was 8.61 µM (inactive); in the test on CAKI-1 it was 1.31 µM (inactive); in the test with T47D, 1.95 µM (inactive); with MOLT-4, 0.283 µM (active); with MCF7, 0.838 µM (active); in the test with LOX IMVI, 0.753 µM (active). The GI50 in the test on KM12 is 2.48 µM (inactive); with SK-MEL-28 it was 1.98 µM (inactive); in the test on 786-0, 0.927 µM (active); in the test with TK-10, 1.83 µM (inactive); with NCI-H23, 1.78 µM (inactive); in the test with Malme-3M, 1.32 µM (inactive). Besides, the GI50 is 5.51 µM (inactive) in the test with NCI-H460; 1.69 µM (inactive) with MDA-MB-435; 5.89 µM (inactive) in the test with EKVX; 2.69 µM (inactive) in the test with SK-MEL-2; 6.89 µM (inactive) in the test on OVCAR-5; 2.01 µM (inactive) with U-251. The GI50 in the test on OVCAR-4 was 1.96 µM (inactive); in the test on A549, 11.5 µM (inactive).
Take `COC(=O)c1c(O)ccc2c1c1c(n2Cc2ccccc2)C(=O)c2ccccc2C1=O`: the GI50 with HOP-62 was 23.6 µM (inactive); in the test on CAKI-1, 18.7 µM (inactive); with T47D, 12.9 µM (inactive); with MOLT-4, 4.88 µM (inactive); in the test with MCF7, 12.1 µM (inactive); in the test with LOX IMVI, 15.6 µM (inactive). Moreover, the GI50 is 12.9 µM (inactive) in the test on KM12; 17.5 µM (inactive) with SK-MEL-28; 18.2 µM (inactive) in the test on 786-0; 17.1 µM (inactive) in the test on TK-10; 15.3 µM (inactive) in the test with NCI-H23; 28.8 µM (inactive) in the test on Malme-3M. For the same compound, the GI50 in the test on NCI-H460 is 10.7 µM (inactive); with MDA-MB-435, 13 µM (inactive); with EKVX it was 20.6 µM (inactive); with SK-MEL-2 it was 14 µM (inactive); in the test on OVCAR-5 it was 20.9 µM (inactive); in the test on U-251, 13.9 µM (inactive). The GI50 with OVCAR-4 was 12 µM (inactive); in the test on A549 it was 7.76 µM (inactive).
